The record followed here is patent US5571518A, “Cosmetic compositions containing tricholine citrate” (priority 1995, dated 1996).

One test concerns Transglutaminase (TG-1). The experiment in a line: Transglutaminase I levels in keratinocytes (ELISA based TG-1 assay). Type of test: cell-based, human. To be noted: 48 hour treatment. The procedure: (§1) Human keratinocytes, isolated from neonatal foreskin by trypsin treatment were grown in Dulbecco Modification Eagle (DME) Hams F12 (3:1) medium/5% fetal calf serum in the presence of mitomycin C treated 3T3 mouse fibroblasts for establishing dividing keratinocyte colonies. Cells were grown under the above condition until their second passage and kept frozen for future use. Frozen second passage keratinocytes were thawed and plated into the above medium and grown for five days. On day 5, when the cells were 70-80% confluent, they were trypsinized and plated in the serum-free medium for the various experiments.
(§2) During the process of terminal differentiation in the epidermis, a 15 nm thick layer of protein, known as the cornified envelope (CE)is formed on the inner surface of the cell periphery. The CE is composed of numerous distinct proteins which have been cross-linked together by the formation of N ^ε -(-γ-glutamyl) lysine isodipeptide bonds catalyzed by the action of at least two different transglutaminases expressed in the epidermis. Transglutaminase (TG-1) is expressed in abundance in the differentiated layers of the epidermis, especially the granular layer, but is absent in the undifferentiated basal epidermis. Thus, TG-1 is a useful marker of epidermal keratinocyte differentiation with high TG-1 levels indicating a more differentiated state. An ELISA based TG-1 assay, using a TG-1 antibody, was used to assess the state of differentiation of the cultured keratinocytes in the examples that follow.
The level of TG-1 was measured as follows. […] The DNA content of the cells in the wells were first determined before the TG-1 assay.
TG-1 levels of the cells in the wells were determined using the TG-1 specific monoclonal antibody (BC1) (first antibody) (obtained from Amersham Life Sciences) and using a peroxidase labelled rabbit antimouse IgG fragment (second antibody). The plates were blocked by 5% nonfat milk in TBS (Tris buffered saline, pH 8.0) for one hour followed by overnight incubation with the first antibody (1:2,000 fold dilution) in 1% milk/TBS at 4° C. After rinsing the plates three times with 1% milk/TBS containing 0.05% Tween 20, the plates were incubated with 1:4000 dilution of the second antibody at room temperature for two hours. The plates were rinsed three times with 1% milk/TBS/Tween and three times with TBS. Color was developed by incubation with o-phenylene diamine and hydrogen peroxide. The optical density was read at 410 nm in a microtiter plate reader and the TG-1 levels were calculated as OD/DNA fluorescence. The mean ±Standard Deviation of at least six separate wells were used for calculation and statistical analysis of the data. Results are expressed as % of control.
Cornified envelope formation is determined by the activity of transglutaminase enzyme which cross-links all the envelope precursor proteins to form the envelope. This enzyme is calcium dependent and is inhibited by calcium chelators such as citric acid and citric acid esters.
In general terms: ELISA stands for enzyme-linked immunosorbent assay.

The subject of test [1] is human keratinocytes. The experiment in a line: Cornified envelope (CE) formation, marker of terminal differentiation of keratinocytes. To be noted: Homo sapiens, Keratinocyte, read-out: CE Levels. It counts as cell-based. The procedure: as §1, §2
Proper skin conditioning require enhanced proliferation and differentiation of epidermal keratinocytes. The different citrate esters were tested on their effect on cornified envelope (CE) formation, a marker of terminal differentiation of keratinocytes. Citrate esters were tested at 1 mM levels in medium containing 0.15 mM Ca. Levels are expressed as % of control ±SD. The CE formation for the control was 54.48 ±31.8 cpm/μg cell protein.

The subject of test [2] is human keratinocytes. The experiment in a line: DNA synthesis in keratinocytes (3H-thymidine incorporation, keratinocyte proliferation). Type of test: cell-based. The note with it: Homo sapiens, Keratinocyte; for activity at 0.1 µM / activity at 1 µM / activity at 10 µM / activity at 100 µM / activity at 1000 µM / activity at 10000 µM: read-out: Rate of DNA synthesis; for minimal effective concentration: read-out: concentration at which inhibitory to DNA synthesis. An excerpt: The incorporation of ^3 H-thymidine by cultured keratinocytes was used as an assay of keratinocyte proliferation. Thymidine is one of four deoxynucleosides which are the monomeric units of DNA, the universal library of genetic information in the animal kingdom. Prior to cell division of a somatic cell such as a keratinocyte, the complete genome of the cell undergoing cell division is replicated. This involves large scale DNA synthesis by the cell and enables both daughter cells to receive identical copies of the genetic material. When ^3 H-thymidine is included in the culture media of keratinocytes which are synthesizing DNA in preparation for cell division then the labelled nucleoside is incorporated into the newly synthesized DNA. The extent of incorporation of ^3 H-thymidine into a population of cells is proportional to the rate of DNA synthesis by this population of cells and therefore an indication of their cellular proliferation.
1. Normal human keratinocytes isolated from neonatal foreskins by trypsin treatment were grown in DME medium/5% fetal calf serum in the presence of mitomycin C treated 3T3 mouse fibroblasts for establishing dividing keratinocyte colonies. Keratinocytes were grown under the above condition until their third passage.
2. For the experiments, third passage keratinocytes were plated into a serum-free keratinocyte growth medium (KGM; obtained from Clonetics, San Diego, Calif.) containing 0.09 mM calcium. 20,000 to 30,000 cells were plated into each well of 24 well cell culture plates and grown for 5 days, until the cells reach about 80% confluence.
3. Medium was changed to fresh medium and the various test materials were added to the medium from an ethanolic stock solution. The final ethanol concentration in the cultures was kept below 0.2%. Control cultures received no tested material but were dosed with 0.2% ethanol. Each compound or combination was tested in three separate wells. In four hours, 1 uCi of ^3 H-thymidine (Amersham Corp., Sp activity 40 Ci/mmol) was added to the 1 ml medium in each well. The cells were incubated overnight and 24 hours later the amount of ^3 H-thymidine associated with the cellular DNA of keratinocytes was assessed as described below.
4. The medium was aspirated, and the wells washed with 1 ml phosphate-buffered saline. The DNA and proteins of the cells in the plate were then precipitated by adding 1 ml of ice-cold 10% trichloroacetic acid (TCA). The plates were left on ice for 30 minutes to complete the precipitation process. TCA was then aspirated and each well was then washed four times with 5% TCA. The plates were then dried on a filter pad and the cells in the wells were dissolved in 0.5 ml of 0.1N sodium hydroxide. The sodium hydroxide was then neutralized using 0.1N hydrochloric acid and the solution (1 ml total volume) was then transferred to a scintillation vial. 50 μl samples from each vial were used for protein assay using BCA protein assay reagent obtained from Pierce Chemical Company. 8 ml of a scintillation fluid (Ecolume) was added to the rest of the solution in the vial, and the vials were counted in a scintillation counter to determine the amount of radioactivity in each vial. The DNA synthesis rate was then calculated as cpm ^3 H thymidine incorporated into total cellular DNA/microgram of cell protein for each individual well.
(Incorporation of labelled thymidine or its analogues reports DNA synthesis.)

[3] abbreviates: 10 μM, * statistically significant.
Setting [4] is: 100 μM, * statistically significant.
[5] abbreviates: 1 mM, medium containing 0.15 mM Ca, ±SD, * statistically significant effects.
The mark [6] stands for this setting: 100 μM, 24 hours exposure, ±SD, * statistically significant compared to controls.
Where [7] appears, read: 1000 μM, 24 hours exposure, ±SD, * statistically significant compared to controls.
Setting [8] is: 10,000 μM, 24 hours exposure, ±SD, * statistically significant compared to controls.

SMILES strings stand for the structures. Read-outs that look alike come from different tables or passages of the source. Where only a bound is given, the exact number is not on record here.

On to `C[N+](C)(C)CCO` [Choline, choline], for which, in the test with Transglutaminase (TG-1) (1 μM), the “transglutaminase I levels” value is reported as 121.8 ± 18 % of control. Moreover, the “transglutaminase I levels” value in the test with Transglutaminase (TG-1) (setting [3]) is reported as 124.2 ± 8.7 % of control. In addition, the “transglutaminase I levels” value in the test with Transglutaminase (TG-1) (setting [4]) is on record as 120.4 ± 11.3 % of control. Moreover, the activity at 1000 µM in the test on human keratinocytes [1] amounted to 135 ± 23.6%. In addition, in the test on human keratinocytes [2] (24 h), the activity at 0.1 µM worked out at 125 ± 17.6%, the activity at 1 µM is 113 ± 12%, the activity at 10 µM was determined as 109 ± 3.3% and the activity at 100 µM came to 114 ± 12%. For the same compound, in the test with human keratinocytes [2] (24 h), the activity at 1000 µM is 115 ± 24% and the activity at 10000 µM came to 127 ± 10.7%.
Regarding `CCOC(=O)CC(O)(CC(=O)OCC)C(=O)OCC` [TEC, triethylcitrate], the “transglutaminase I levels” value is given as 77.3 ± 10.7 % of control with Transglutaminase (TG-1) (1 μM), 76.7 ± 20.8 % of control in the test with Transglutaminase (TG-1) (setting [3]) and 67.2 ± 11.9 % of control in the test with Transglutaminase (TG-1) (setting [4]). Moreover, the activity at 1000 µM came to 18.6 ± 4.2% with human keratinocytes [1] (setting [5]) and 11.2 ± 9.2% in the test on human keratinocytes [2] (setting [7]). In the test with human keratinocytes [2] (0.1 μM, 24 hours exposure, ±SD), the activity at 0.1 µM was determined as 112 ± 21.5%. For the same compound, the activity at 1 µM in the test on human keratinocytes [2] (1.0 μM, 24 hours exposure, ±SD) stood at 112 ± 13.1%. The activity at 10 µM in the test with human keratinocytes [2] (10 μM, 24 hours exposure, ±SD) is 79.1 ± 13.9%. Moreover, the activity at 100 µM in the test with human keratinocytes [2] (setting [6]) is 9.8 ± 2.3%. For the same compound, the activity at 10000 µM in the test with human keratinocytes [2] (setting [8]) was found to be 1.2 ± 0.02%. Further, the minimal effective concentration in the test with human keratinocytes [2] (24 hours exposure) was above 10 µM.
`CCCCOC(=O)CC(O)(CC(=O)OCCCC)C(=O)OCCCC` [TBC, tributylcitrate]: the results for the “transglutaminase I levels” value in the test with Transglutaminase (TG-1) (1 μM), in the test with Transglutaminase (TG-1) (setting [3]) and with Transglutaminase (TG-1) (setting [4]) were 100 ± 13 % of control, 79 ± 13 % of control and 79 ± 13 % of control, respectively. The activity at 1000 µM in the test with human keratinocytes [1] (setting [5]) is 23.6 ± 2.1%; with human keratinocytes [2] (setting [7]) it was 1.35 ± 0.1%. In the test with human keratinocytes [2] (0.1 μM, 24 hours exposure, ±SD), the activity at 0.1 µM amounted to 106 ± 8.4%. The activity at 1 µM in the test on human keratinocytes [2] (1.0 μM, 24 hours exposure, ±SD) was 100 ± 28%. Further, the activity at 10 µM in the test with human keratinocytes [2] (10 μM, 24 hours exposure, ±SD) is 68.2 ± 13%. The activity at 100 µM in the test with human keratinocytes [2] (setting [6]) was found to be 8.7 ± 5.5%. Also, the activity at 10000 µM in the test on human keratinocytes [2] (setting [8]) stood at 0.505%. Moreover, the minimal effective concentration in the test with human keratinocytes [2] (24 hours exposure) is above 10 µM.
